# Experimental data from the supplement of paper PMC10307832.
# What was measured:
# Assay in all cases: relative viability (nuclei count vs DMSO), 5 days (fraction); higher = more cells survive
# [1] = compound: C1=CC=C(C(=C1)C2=CC=C(C=C2)C3=CSC4=C3C(=C(C(=O)N4)C#N)O)O + CC1(C)CCC(c2ccc(Cl)cc2)=C(CN2CCN(c3ccc(C(=O)NS(=O)(=O)c4ccc(N[C@H](CCN5CCOCC5)CSc5ccccc5)c(S(=O)(=O)C(F)(F)F)c4)cc3)CC2)C1 [Navitoclax] (partner 0.5 µM)
# Summary of the method: (§1)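 Cells from lung cancer lines were seeded into 1536-well plates and, one day later, dosed by pin tool. Treatments were either a single drug or a fixed dose of an anchor drug with five library-drug doses (not always all listed) in √10 steps. After 5 days, nuclei were stained in a one-step fixation (final 0.05% Triton X-100, 1% formaldehyde, 1 ug/ml Hoechst) and counted on 4× images, and relative viability is the treated-to-vehicle nuclei ratio, as the median of duplicate plates.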
# [2] = compound: CC1=CN2C(=O)C=C(N=C2C(=C1)C(C)NC3=CC=CC=C3)N4CCOCC4 [TGX 221] + CC(=O)Nc1cccc(-n2c(=O)n(C3CC3)c(=O)c3c(Nc4ccc(I)cc4F)n(C)c(=O)c(C)c32)c1 [Trametinib] (partner 0.02 µM)
# Summary of the method: as §1
# [3] = compound: CC1=CN2C(=O)C=C(N=C2C(=C1)C(C)NC3=CC=CC=C3)N4CCOCC4 [TGX 221] + O=C(c1cc(Cc2n[nH]c(=O)c3ccccc23)ccc1F)N1CCN(C(=O)C2CC2)CC1 [Olaparib] (partner 8 µM)
# Summary of the method: as §1
# [4] = compound: C1=CC=C(C(=C1)C2=CC=C(C=C2)C3=CSC4=C3C(=C(C(=O)N4)C#N)O)O + Cc1nc(NC(=O)N2CCC[C@H]2C(N)=O)sc1-c1ccnc(C(C)(C)C(F)(F)F)c1 [Alpelisib] (partner 2 µM)
# Summary of the method: as §1
Cell Line,relative viability ([1]; first compound 0.08 µM),relative viability ([1]; first compound 0.253 µM),relative viability ([1]; first compound 0.8 µM),relative viability ([1]; first compound 2.53 µM),relative viability ([1]; first compound 8 µM),relative viability ([2]; first compound 0.08 µM),relative viability ([2]; first compound 0.253 µM),relative viability ([2]; first compound 0.8 µM),relative viability ([2]; first compound 2.53 µM),relative viability ([2]; first compound 8 µM),relative viability ([3]; first compound 0.08 µM),relative viability ([3]; first compound 0.253 µM),relative viability ([3]; first compound 0.8 µM),relative viability ([3]; first compound 2.53 µM),relative viability ([3]; first compound 8 µM),relative viability ([4]; first compound 0.08 µM),relative viability ([4]; first compound 0.253 µM),relative viability ([4]; first compound 0.8 µM),relative viability ([4]; first compound 2.53 µM),relative viability ([4]; first compound 8 µM)
NCI-H3122,1.01,1.11,1,1.01,1.07,0.244,0.188,0.224,0.211,0.257,0.596,0.625,0.596,0.562,0.643,0.795,0.909,0.89,0.844,0.902
HCC-15,0.663,0.809,0.763,0.858,0.644,0.373,0.335,0.368,0.376,0.337,0.641,0.728,0.756,0.704,0.719,0.976,1.03,0.943,1.01,0.819
NCI-H2009,1.06,1.08,1.21,1.17,1.09,0.25,0.196,0.204,0.152,0.173,0.685,0.746,0.69,0.639,0.537,1.11,1.09,1.14,1.11,1.09
NCI-H23,0.883,0.746,1,0.754,0.468,0.279,0.329,0.338,0.403,0.328,0.302,0.287,0.284,0.296,0.294,0.652,0.695,0.833,0.719,0.421
NCI-H1734,0.793,0.979,0.886,0.972,0.492,0.678,0.602,0.71,0.66,0.688,0.557,0.554,0.616,0.576,0.523,0.658,0.675,0.697,0.724,0.542
NCI-H2170,0.616,0.683,0.601,0.561,0.465,0.883,0.877,0.949,0.977,0.892,0.625,0.522,0.625,0.526,0.608,0.797,0.79,0.884,0.786,0.685
NCI-H2342,–,–,–,–,–,0.814,0.763,0.8,0.632,0.93,0.424,0.417,0.404,0.466,0.463,–,–,–,–,–
HCC-366,0.959,1.18,1.05,1.11,0.501,0.288,0.325,0.311,0.235,0.239,0.331,0.303,0.407,0.344,0.357,0.506,0.491,0.431,0.441,0.367
HARA,–,1.41,1.19,1.15,1.02,0.722,0.655,0.715,0.614,0.429,0.658,0.917,0.868,0.629,0.711,–,0.84,0.796,0.932,0.655
NCI-H2087,1.02,1.05,1.1,1.15,0.994,0.168,0.155,0.211,0.207,0.217,0.646,0.66,0.501,0.683,0.598,1.07,1.27,1.16,1.11,1.13
NCI-H1650,–,1.25,1.23,1.15,0.865,0.456,0.655,0.669,0.596,0.416,0.684,0.704,0.954,0.719,0.642,–,–,–,–,–
NCI-H1563,–,–,–,–,–,–,–,–,–,–,–,–,–,–,–,0.783,1.03,0.991,0.832,0.998
NCI-H1666,0.946,1.03,0.876,0.944,0.879,0.726,0.797,0.852,0.884,0.742,0.751,0.748,0.754,0.727,0.774,0.792,1.18,0.861,1.14,0.987
LCLC-103H,–,–,–,–,–,0.65,0.639,0.626,0.683,0.651,0.747,0.738,0.793,0.764,0.717,0.948,0.881,1.05,0.981,0.869
HOP-62,1.22,1.1,1.04,1.18,0.922,0.386,0.351,0.338,0.252,0.298,0.408,0.435,0.536,0.707,0.585,0.905,0.774,0.709,1.05,0.573
BEN,0.0583,0.07,0.0922,0.0562,0.063,1.03,0.969,0.93,0.998,0.891,1.16,0.887,1.05,0.882,1.01,0.828,1.11,0.918,1.27,0.756
NCI-H1299,1.12,1.02,1.04,1.1,1.07,–,–,–,–,–,0.971,0.952,1.02,1.03,0.943,1.01,1.08,1.14,1.08,0.699
UMC-11,0.321,0.301,0.321,0.314,0.318,0.671,0.648,0.822,0.777,0.823,0.379,0.503,0.346,0.319,0.338,0.668,0.73,1.01,1.2,0.793
NCI-H1755,1.03,1.13,0.98,1.08,0.78,0.792,0.743,0.646,0.647,0.628,0.853,0.843,0.829,0.738,0.68,0.861,0.957,0.941,1.03,0.883

Cell Line,relative viability ([1]; first compound 0.08 µM),relative viability ([1]; first compound 0.253 µM),relative viability ([1]; first compound 0.8 µM),relative viability ([1]; first compound 2.53 µM),relative viability ([1]; first compound 8 µM),relative viability ([2]; first compound 0.08 µM),relative viability ([2]; first compound 0.253 µM),relative viability ([2]; first compound 0.8 µM),relative viability ([2]; first compound 2.53 µM),relative viability ([2]; first compound 8 µM),relative viability ([3]; first compound 0.08 µM),relative viability ([3]; first compound 0.253 µM),relative viability ([3]; first compound 0.8 µM),relative viability ([3]; first compound 2.53 µM),relative viability ([3]; first compound 8 µM),relative viability ([4]; first compound 0.08 µM),relative viability ([4]; first compound 0.253 µM),relative viability ([4]; first compound 0.8 µM),relative viability ([4]; first compound 2.53 µM),relative viability ([4]; first compound 8 µM)
SK-LU-1,0.891,0.799,0.946,0.898,0.742,0.483,0.672,0.542,0.356,0.41,0.453,0.47,0.442,0.42,0.432,0.834,1.15,1.13,1.07,0.974
NCI-H1793,0.406,0.753,0.41,0.443,0.359,0.462,0.374,0.398,0.357,0.306,0.786,0.507,0.612,0.414,0.502,0.699,0.624,0.598,0.581,0.45
NCI-H647,0.877,1.16,1.24,1.21,0.741,0.436,0.375,0.355,0.247,0.297,0.443,0.385,0.553,0.403,0.447,0.559,1,1.11,1.19,1.34
NCI-H1975,0.958,1.25,1.15,1.22,0.731,0.313,0.414,0.356,0.289,0.272,0.757,0.747,0.802,0.679,0.659,0.508,0.694,0.542,0.721,0.485
NCI-H1648,–,–,–,–,–,–,0.403,0.569,0.435,0.471,–,0.452,0.802,0.764,0.842,–,–,–,–,–
NCI-H2126,0.866,0.924,0.798,0.884,0.951,0.535,0.441,0.568,0.547,0.56,0.927,0.885,0.886,0.813,0.871,0.784,0.809,0.748,0.77,0.731
EBC-1,0.353,0.371,0.425,0.37,0.348,–,–,–,–,–,0.664,0.697,0.616,0.676,0.55,0.885,0.877,0.721,0.865,0.712
NCI-H1651,1.07,0.941,1.05,1.1,0.642,0.809,0.84,0.756,0.764,0.73,0.183,0.199,0.166,0.161,0.18,0.65,1.06,1.08,1.05,0.854
ABC-1,–,–,–,–,–,–,–,–,–,–,0.8,0.86,0.908,0.781,0.876,1.09,1.08,1.08,0.878,1.01
ChaGo-K-1,0.642,0.833,0.909,1,1.37,0.952,0.871,0.857,0.922,0.843,0.399,0.387,0.374,0.359,0.426,–,–,–,–,–
NCI-H522,–,–,–,–,–,0.658,0.822,0.719,0.623,0.661,0.563,0.628,0.729,0.616,0.645,–,–,–,–,–
Calu-6,0.831,0.981,1.03,0.843,0.785,–,–,–,–,–,0.55,0.513,0.549,0.536,0.512,1.15,0.993,1.11,1.01,1.09
NCI-H358,–,–,–,–,–,0.13,0.127,0.153,0.132,0.132,0.626,0.565,0.705,0.545,0.582,0.708,0.862,0.788,0.973,0.763
NCI-H1703,0.989,1.04,1.2,0.93,0.962,–,–,–,–,–,0.449,0.462,0.389,0.396,0.255,0.31,0.313,0.328,0.301,0.385
NCI-H650,–,–,–,–,–,0.932,0.894,0.974,0.908,0.861,0.409,0.359,0.371,0.348,0.334,1.1,1.36,0.961,1.11,1.22
A549,1.37,1.44,1.28,1.28,1.04,–,–,–,–,–,0.375,0.318,0.0939,0.301,0.422,0.733,1.14,0.908,0.707,0.604
NCI-H661,–,–,–,–,–,0.584,0.544,0.569,0.591,0.495,0.743,0.764,0.765,0.748,0.76,0.59,0.583,0.538,0.554,0.549
SW 900,–,–,–,–,–,–,0.613,0.871,0.575,0.5,–,0.787,0.701,0.578,0.562,–,–,–,–,–
IA-LM,0.696,1.06,0.76,0.797,0.399,–,–,–,–,–,0.866,0.857,0.846,0.858,0.799,0.549,0.879,0.626,0.75,0.374
